# Measured values published in patent publication US20110251211A9, “METHODS OF USING SUBSTITUTED ISOXAZOLO PYRIDINONES AS DISSOCIATED GLUCOCORTICOIDS” (priority 2009, published 2011).
# How the values were obtained:
# Assay type in all cases: cell-based
# GR [1] = molecular target: T1, GR (Homo sapiens, UniProt P04150); assay: GR transactivation on MMTV in AD293 cells (pHHLuc dual-luciferase reporter); details: FIG. 5
# T1 construct: expressed in transfected cells; host or cells: AD293 cells
# T1 sequence (P04150 1-777): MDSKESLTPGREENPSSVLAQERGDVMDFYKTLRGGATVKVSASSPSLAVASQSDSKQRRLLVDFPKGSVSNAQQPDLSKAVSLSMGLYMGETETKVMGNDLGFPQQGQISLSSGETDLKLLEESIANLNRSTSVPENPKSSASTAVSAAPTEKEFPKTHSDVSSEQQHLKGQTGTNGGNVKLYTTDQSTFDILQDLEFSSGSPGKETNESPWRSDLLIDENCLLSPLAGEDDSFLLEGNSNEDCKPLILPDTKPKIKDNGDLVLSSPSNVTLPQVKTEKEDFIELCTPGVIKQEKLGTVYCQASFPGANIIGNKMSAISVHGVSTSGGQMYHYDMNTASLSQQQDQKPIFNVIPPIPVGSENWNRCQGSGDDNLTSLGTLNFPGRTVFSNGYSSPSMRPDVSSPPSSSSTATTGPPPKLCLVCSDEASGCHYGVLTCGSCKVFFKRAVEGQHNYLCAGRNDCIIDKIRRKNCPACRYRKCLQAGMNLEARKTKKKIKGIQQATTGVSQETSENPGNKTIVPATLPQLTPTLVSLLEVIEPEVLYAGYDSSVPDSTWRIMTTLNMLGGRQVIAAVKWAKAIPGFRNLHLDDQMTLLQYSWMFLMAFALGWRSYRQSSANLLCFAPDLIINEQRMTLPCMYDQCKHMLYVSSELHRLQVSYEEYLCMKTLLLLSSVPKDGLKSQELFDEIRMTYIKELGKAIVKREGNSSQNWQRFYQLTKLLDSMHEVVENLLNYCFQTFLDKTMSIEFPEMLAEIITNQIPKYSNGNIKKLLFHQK
# Protocol: GR Transactivation on MMTV in∘AD293 Cells Transfected with 0.5 ng GR
# AD293 cells were transfected with 0.5 ng GR, 100 ng pHHLuc reporter together with 5 ng Renilla control plasmids, then induced by EtOH (vehicle control), Dexamethasone (10 nM), Compound #53 (5 μM), AL438 (1 μM) and DMSO (vehicle control). Dual-Luciferase values were measured by Promega standard manual, Compound #53's transactivation activity on MMTV in AD293 cells is shown in FIG. 5.
# GR [2] = molecular target: T1, GR; assay: GR transrepression of AP1 in AD293 cells (AP1-Luc dual-luciferase reporter)
# Protocol: FIG. 9 is a bar graph showing the dose-response of Compound #53 on GR transrepression of AP1 in AD293 cells.
# GR Transrepression of AP1 in AD293 Cells Transfected with 10 ng GR
# AD293 cells were transfected with 10 ng GR, 100 ng AP1-Luc reporter together with 5 ng Renilla control plasmids, then induced by EtOH (vehicle control), Dexamethasone (10 nM), Compound #53 (5 μM), AL438 (1 μM). Dual-Luciferase values were measured by Promega standard manual.
# GR Transpression of AP 1 in AD293 Cells Transfected with 50 ng GR
# AD293 cells were transfected with 50 ng GR, 100 ng AP1-Luc reporter together with 5 ng Renilla control plasmids, then induced by PMA+EtOH (vehicle control), PMA+Dexamethasone (10 nM), PMA+Compound #53 (5 μM). Dual-Luciferase values were measured by Promega standard manual.
# GR [3] = molecular target: T1, GR; assay: GR transrepression of NF-kB in AD293 cells (pNF-kB-Luc dual-luciferase reporter)
# Protocol: FIG. 10 is a bar graph showing the dose-response of Compound #53 on GR transrepression of NF-kB in AD293 cells.
# GR Transrepression of NF-kB in AD293 Cells Transfected with 100 ng GR
# […] Dual-Luciferase values were measured by Promega standard manual.
# [4] = dose-response repression experiments
structure (smiles),measurement,setting,value
"CN(C)Cc1ccc(-c2cc3onc(-c4ccccc4)c3c(=O)n2C)cc1 [Compound #53, 6-(4-((dimethylamino)methyl)phenyl)-5-methyl-3-phenylisoxazolo[4,5-c]pyridin-4(5H)-one]",GR transactivation activity,GR [1],minimal GR transactivation activity
same,GR transrepression activity on AP1 compared with currently used GR ligands,GR [2]; FIGS. 6-7,stronger GR transrepression activity than currently used GR ligands
same,fold repression for AP1,"GR [2]; at 50 μM, dose-response, FIG. 9",about 2000
same,AP-1 activity on the reporter,GR [2]; [4],almost zero
same,GR transrepression activity on NF-kB compared with currently used GR ligands,GR [3]; FIG. 8,stronger GR transrepression activity than currently used GR ligands
same,fold repression of NF-kB,"GR [3]; at 50 μM, dose-response, FIG. 10",about 1000
same,NF-kB activity on the reporter,GR [3]; [4],almost zero
